According to article PMC12169475 (ACS Medicinal Chemistry Letters, 2025):
Ends that are not written are not given here.

Legend:
[1] = system: HaCat cells; test: In vitro cytotoxicity screening against epidermal HaCat cells (MTT); conditions: 24 h exposure in total (21 h + 3 h MTT), OD570, three independent experiments in duplicate (n = 6)
[2] = system: E. cloacae ATCC 700323; conditions: for Modal MIC: E. cloacae ATCC 700323, cation-adjusted MHB, ~5 x 10^5 CFU/mL, 37°C 20 h, OD600, n = 6
Description: (§1) Antibacterial activity against a panel of standard laboratory strains and clinical isolates.
(§2) Antimicrobial activity was evaluated against a panel of Gram-negative bacteria maintained by H3D, University of Cape Town, consisting of six laboratory reference strains and two clinical isolates. Briefly, bacterial colonies from an LB agar plate were picked and cultured in cation-adjusted Mueller Hinton broth (MHB) at 37°C with 180 rpm shaking, overnight. Cultures were […]
(§3) back diluted to reach a starting optical density at 600 nm (OD600) of 0.1 and then diluted 100- […]
(§4) media down polypropylene 96-well plates. Inoculum was added at a 1:1 ratio resulting in a […]
(§5) (Suppl. Table S2). Plates were incubated at 37°C for 20 h and the OD600 determined. Minimum inhibition concentrations (MICs) were determined from a minimum of three biological repeats. […]
(§6) the background absorbance.
(§7) Caution! All bacterial work was conducted using appropriate biosafety level 2 (BSL-2) practices.
(§8) Clinical isolates and reference strains were handled in a biosafety cabinet with proper PPE to prevent exposure and contamination.

[3] = system: A. baumannii NICD 15283 (C); conditions: for Modal MIC: A. baumannii NICD 15283 clinical isolate, cation-adjusted MHB, ~5 x 10^5 CFU/mL, 37°C 20 h, OD600, n = 6
Description: as §1, §2, §3, §4, §5, §6, §7, §8

[4] = system: E. cloacae NICD 16103 (C); conditions: for Modal MIC: E. cloacae NICD 16103 clinical isolate, cation-adjusted MHB, ~5 x 10^5 CFU/mL, 37°C 20 h, OD600, n = 6
Description: as §1, §2, §3, §4, §5, §6, §7, §8

[5] = system: A. baumannii ATCC 19606; conditions: for Modal MIC: A. baumannii ATCC 19606, cation-adjusted MHB, ~5 x 10^5 CFU/mL, 37°C 20 h, OD600, n = 6
Description: as §1, §2, §3, §4, §5, §6, §7, §8

[6] = system: K. pneumoniae ATCC BAA-1705; conditions: for Modal MIC: K. pneumoniae ATCC BAA-1705, cation-adjusted MHB, ~5 x 10^5 CFU/mL, 37°C 20 h, OD600, n = 6
Description: as §1, §2, §3, §4, §5, §6, §7, §8

[7] = system: P. aeruginosa PAO1; conditions: for Modal MIC: P. aeruginosa PAO1, cation-adjusted MHB, ~5 x 10^5 CFU/mL, 37°C 20 h, OD600, n = 6
Description: as §1, §2, §3, §4, §5, §6, §7, §8

[8] = system: E. coli ATCC 25922; conditions: E. coli ATCC 25922; cation-adjusted MHB, ~5 x 10^5 CFU/mL, 37°C 20 h, OD600; triplicate experiments in duplicate (n = 6)
Description: as §1, §2, §3, §4, §5, §6, §7

[9] = system: E. coli ATCC 700928; conditions: E. coli ATCC 700928; cation-adjusted MHB, ~5 x 10^5 CFU/mL, 37°C 20 h, OD600; n = 6
Description: as §1, §2, §3, §4, §5, §6, §7, §8

[10] = system: A. baumannii NICD 15283 (C); parameters: key: S - Susceptible; R - Resistant; I – Intermediate; conditions: A. baumannii NICD 15283 clinical isolate; ref NICD; cited from earlier work
[11] = system: E. cloacae NICD 16103 (C); parameters: key: S - Susceptible; R - Resistant; I – Intermediate; conditions: E. cloacae NICD 16103 clinical isolate; ref NICD; cited from earlier work

Compound | Modal MIC [3] | Modal MIC [6] | Modal MIC [7] | Modal MIC [9] | Antimicrobial susceptibility profile [10] | Antimicrobial susceptibility profile [11] | also measured
GKVWKWIKSTAKKLWN-NH2 [Opis16aD5K] | 8 µg/mL | 16 µg/mL | 8 µg/mL |  |  |  | HaCat toxicity LC50 + SD [1]: 148 ± 6 µg/mL; Modal MIC [2]: 16 µg/mL; Selectivity index (HaCat LC50 / MIC) ([2]; E. cloacae ATCC 700323 over HaCat cells): 9.27; Selectivity index (HaCat LC50 / MIC) ([3]; A. baumannii NICD 15283 clinical isolate over HaCat cells): 18.5; Selectivity index (HaCat LC50 / MIC) ([4]; E. cloacae NICD 16103 clinical isolate over HaCat cells): 18.5; Modal MIC [4]: 8 µg/mL; Modal MIC [5]: 8 µg/mL; Selectivity index (HaCat LC50 / MIC) ([5]; A. baumannii ATCC 19606 over HaCat cells): 18.5; Selectivity index (HaCat LC50 / MIC) ([6]; K. pneumoniae ATCC BAA-1705 over HaCat cells): 9.27; Selectivity index (HaCat LC50 / MIC) ([7]; P. aeruginosa PAO1 over HaCat cells): 18.5; Modal MIC [8]: 16 µg/mL
CC[C@H](C)[C@H](NC(=O)CN)C(=O)NCC(=O)N[C@@H](C)C(=O)N[C@H](C(=O)N[C@@H](CC(C)C)C(=O)N[C@@H](CCCCN)C(=O)N[C@H](C(=O)N[C@@H](CC(C)C)C(=O)N[C@H](C(=O)N[C@H](C(=O)NCC(=O)N[C@@H](CC(C)C)C(=O)N1CCC[C@H]1C(=O)N[C@@H](C)C(=O)N[C@@H](CC(C)C)C(=O)N[C@H](C(=O)N[C@@H](CO)C(=O)N[C@@H](Cc1c[nH]c2ccccc12)C(=O)N[C@H](C(=O)N[C@@H](CCCCN)C(=O)N[C@@H](CCCNC(=N)N)C(=O)N[C@@H](CCCCN)C(=O)N[C@@H](CCCNC(=N)N)C(=O)N[C@@H](CCC(N)=O)C(=O)N[C@@H](CCC(N)=O)C(N)=O)[C@@H](C)CC)[C@@H](C)CC)[C@@H](C)O)[C@@H](C)O)C(C)C)C(C)C [Melittin, reference compound] | 4 µg/mL |  | 2 µg/mL | 4 µg/mL |  |  | Modal MIC [4]: 8 µg/mL
NC[C@H]1O[C@H](O[C@H]2[C@H](O)[C@@H](O[C@H]3O[C@H](CO)[C@@H](O)[C@H](N)[C@H]3O)[C@H](N)C[C@@H]2N)[C@H](N)C[C@@H]1O [Tobramycin] |  |  |  |  | R | R | 
NCC[C@H](O)C(=O)N[C@@H]1C[C@H](N)[C@@H](O[C@H]2O[C@H](CN)[C@@H](O)[C@H](O)[C@H]2O)[C@H](O)[C@H]1O[C@H]1O[C@H](CO)[C@@H](O)[C@H](N)[C@H]1O [Amikacin] |  |  |  |  | R | S | 
Polymyxin B [reference compound] | 1 µg/mL | 0.5 µg/mL |  | 0.5 µg/mL |  |  | Modal MIC [2]: 0.25 µg/mL; Modal MIC [5]: 1 µg/mL; Modal MIC [8]: 0.25 µg/mL
O=C(O)c1cn(C2CC2)c2cc(N3CCNCC3)c(F)cc2c1=O [Ciprofloxacin, reference compound] |  | > 32 µg/mL | 0.5 µg/mL | 0.25 µg/mL |  |  | 
CC1(C)[C@H](C(=O)O)N2C(=O)C[C@H]2S1(=O)=O [Sulbactam] |  |  |  |  | I | R | 
